Data from patent US11673866B2, “Estrogen receptor beta ligands for the prevention and treatment of multiple sclerosis (MS) and other demyelinating, inflammatory and neurodegenerative diseases” (The Board of Trustees of the University of Illinois, priority 2018, dated 2023).
“Also recorded” adds a separate entry of the source.

Legend:
EAE mice = experiment: Rotarod behavioral assay in EAE mice; type: in vivo, mouse; parameters: key to Disability: Rotarod performance: ‘+’ indicate marker was significantly (p ≤ 0.05) increased in treatment group relative to vehicle; ‘−’ indicates marker was significantly (p ≤ 0.05) decreased in treatment group relative to vehicle; ○: ‘o’ indicate marker did not change relative to vehicle; details: for Disability: Rotarod performance: vs vehicle; for rotarod performance (motor function): therapeutic s.c. from day 8 (postEAE)
Procedure: Rotarod behavioral assay: Motor behavior was tested up to two times per week for each mouse using a rotarod apparatus (Med Associates, Inc., St. Albans, Vt.). Briefly, animals were placed on a rotating horizontal cylinder for a maximum of 200 seconds. The amount of time the mouse remained walking on the cylinder without falling was recorded. Each mouse was tested on a speed of 3-30 rpm and given three trials for any given day. The three trials were averaged to report a single value for an individual mouse, and averages were then calculated for all animals within a given treatment group (Moore et al., 2014). The first two trial days prior to immunization served as practice trials.
As a complementary assay of motor function, mice were tested on a rotarod device following a previously described protocol (Moore et al., 2014). […] (FIG. 2B).

[1] = system: CD45+ leukocyte, Iba1+ macrophage/microglia, GFAP+ astrocytes; experiment: CD45, Iba1 and GFAP staining in thoracic spinal cord dorsal column of EAE mice; type: in vivo, mouse; parameters: key to CNS Cellular Inflammation: CD45 / CNS Cellular Inflammation: Iba1 / CNS Cellular Inflammation: GFAP: ‘+’ indicate marker was significantly (p ≤ 0.05) increased in treatment group relative to vehicle; ‘−’ indicates marker was significantly (p ≤ 0.05) decreased in treatment group relative to vehicle; ○: ‘o’ indicate marker did not change relative to vehicle; details: vs vehicle; for CD45 fluorescence intensity, spinal cord dorsal column / GFAP fluorescence intensity, spinal cord dorsal column: therapeutic treatment (postEAE)
Excerpt: Immunohistochemistry: Before histological staining, 40-μm free floating sections were thoroughly washed with PBS to remove residual sodium azide (Crawford et al., 2010). Sections were permeabilized with 0.3% Triton X-100 in ix PBS and 15% normal goat serum (NGS). Myelination, gliosis and immune markers were visualized by the following primary antibodies at a concentration of 1:500 unless otherwise noted: chicken anti-myelin basic protein (MBP; polyclonal, EMD Millipore, Darmstadt, Germany), chicken anti-glial fibrillary acidic protein (GFAP; EMD Millipore, Darmstadt), rat anti-cluster of differentiation 45 (CD45; clone 30-F11, BD Biosciences, San Diego, Calif.), mouse anti-ionized calcium-binding adapter molecule 1/allograft inflammatory factor-1 (Iba1/AIF1; clone 20A12.1, EMD Millipore, Darmstadt, Germany), goat anti-CXCL1 (R&D systems; Minneapolis, Minn.) at 1:250 and mouse anti-adenomatous polyposis coli (CC-1; clone CC-1, Genetex, Irvine, Calif.). Secondary staining was performed using polyclonal fluorophore-conjugated antibodies from ThermoFisher Scientific at a concentration of 1:500 unless otherwise specified: goat anti-chicken Alexa Fluor® 555 (AF555), goat anti-rabbit Alexa Fluor® 647 (AF647), donkey anti-chicken IgY Cy3 (EMD Millipore), goat anti-rat IgG AF647, goat anti-rabbit IgG Cy3 (EMD Millipore), goat anti-mouse IgG2b AF647 and rabbit anti-goat AF647. Nuclei were counter stained with 4′,6-Diamidino-2-phenylindole (DAPI, 2 ng/ml; Molecular Probes) for 10 minutes after incubation with secondary antibodies, and sections were mounted on glass slides, allowed to dry, and coverslipped with Fluoromount G mounting medium (Thermo Fisher Scientific) for imaging.
Confocal Microscopy: Thoracic spinal cord dorsal and ventral column sections, as well as CC were imaged using an Olympus BX61 confocal microscope (Olympus America Inc., Center Valley, Pa.) using a 10× and 40× objective. Z-stack projections were compiled using SlideBook 6 software (Intelligent Imaging Innovations, Inc., Denver, Colo.). Immunostaining was quantified using unbiased stereology (Crawford et al., 2010). All images (RGB) were Confocal converted to grayscale, split, and separated by color channel using imageJ version 2.2.0-rc-46/1.50 g (NIH). To avoid experimenter bias, auto-adjustment of brightness and contrast, as well as threshold of staining signal, was carried out by ImageJ. MBP^+, GFAP^+, CD45^+, Iba1^+, CC1^+, and CXCL1^+, staining intensity was measured as percent area of positive immunoreactivity within the region of interest and intensity of signal determined by ImageJ.
To assess whether IndCl analogues exert similar anti-inflammatory effects, CD45+ leukocyte, ionized calcium-binding adapter molecule 1 (Iba1)+ macrophage/microglia, and GFAP+ astrocytes were assessed in thoracic spinal cord dorsal column sections from normal and EAE mice.

[2] = system: myelin basic protein (MBP) in thoracic spinal cord ventral column; experiment: MBP immunoreactivity in thoracic ventral column white matter of EAE mice; type: in vivo, mouse; details: therapeutic treatment (postEAE), vs vehicle
Procedure: Histological Preparation of Tissues: Mice were deeply anesthetized by isoflurane (Piramal Healthcare) inhalation and perfused transcardially with phosphate buffered saline (PBS), followed by 10% formalin (Thermo Fisher Scientific) to fix tissues. Brains and spinal cords were dissected and post-fixed in 10% formalin (Thermo Fisher Scientific) for 24 hours, then cryoprotected in 30% sucrose (EMD Millipore, Darmstadt, Germany) for 48 hours and embedded in gelatin for sectioning. Embedded brains and spinal cords were then cut into 40-μm coronal sections using an HM525 NX cryostat (Thermo Fisher Scientific). Sections were collected serially and stored in PBS with 1% sodium azide at 4° C. until staining by immunohistochemistry, following a previously described protocol (Crawford et al., 2010; Moore et al., 2014).
Immunohistochemistry: Before histological staining, 40-μm free floating sections were thoroughly washed with PBS to remove residual sodium azide (Crawford et al., 2010). Sections were permeabilized with 0.3% Triton X-100 in ix PBS and 15% normal goat serum (NGS). […]
Confocal Microscopy: Thoracic spinal cord dorsal and ventral column sections, as well as CC were imaged using an Olympus BX61 confocal microscope (Olympus America Inc., Center Valley, Pa.) using a 10× and 40× objective. […] Immunostaining was quantified using unbiased stereology (Crawford et al., 2010). […] MBP^+, GFAP^+, CD45^+, Iba1^+, CC1^+, and CXCL1^+, staining intensity was measured as percent area of positive immunoreactivity within the region of interest and intensity of signal determined by ImageJ.
Treatment with IndCl or other ERβ ligands improves myelination within CNS white tracts of mice with EAE (Khalaj et al., 2013; Kumar et al., 2013; Moore et al., 2014). To establish the pro-myelinating effects of the IndCl analogues tested, thoracic ventral column white matter was assessed for myelin basic protein (MBP) immunoreactivity.

[3] = Uterus to body weight ratio in EAE mice; type: in vivo, mouse; details: therapeutic treatment (postEAE), female EAE mice
Excerpt: Estrogens increase uterine weight by acting primarily through ERα (Hewitt and Korach, 2003).

primary OPCs/OLs = experiment: Primary OPC/OL differentiation and survival (O4, MOG, DAPI staining); type: cell-based, mouse; details: vs vehicle-treated cells, FIG. 12B
Excerpt: FIG. 12A is representative images of primary OPCs/OLs from wells containing differentiating media in the presence of different analogues. OLs were immunostained with an antigen on the surface of oligodendrocyte progenitors, O4, a marker of mature oligodendrocytes, myelin oligodendrocyte glycoprotein, MOG and co-stained with nuclear stain DAPI.
FIG. 12B and FIG. 12C show quantification of the effects of treatment on the number of MOG+ OLs and the number of total cells (DAPI), respectively. […] There were 3 wells/treatment group. n=3 independent experiments were performed. One-Way ANOVA with Dunnett's multiple comparisons test.
The effect on cell differentiation and survival of estrogen receptor § (ERP) ligand IndCl and analogs were investigated. Some estrogen receptor § (ERP) ligands increase primary mouse oligodendrocyte differentiation (FIGS. 12A-12C).

[4] = Post (therapeutic, postEAE) treatment of EAE mice
[5] = Pre (prophylactic, preEAE) E2 treatment of EAE mice

Structure (SMILES)	Disability: Rotarod performance (EAE mice; [4])	Disability: Rotarod performance (EAE mice; [5])	CNS Cellular Inflammation: CD45 [1, 4]	CNS Cellular Inflammation: GFAP [1, 4]	CNS Cellular Inflammation: Iba1 [1, 4]	CNS Cellular Inflammation: CD45 [1, 5]	CNS Cellular Inflammation: GFAP [1, 5]	CNS Cellular Inflammation: Iba1 [1, 5]	MBP staining intensity, thoracic spinal cord ventral column [2]	uterus to body weight ratio [3]	rotarod performance (motor function) (EAE mice)	number of MOG+ OLs (primary OPCs/OLs)	CD45 fluorescence intensity, spinal cord dorsal column [1]	GFAP fluorescence intensity, spinal cord dorsal column [1]
C[C@]12CC[C@@H]3c4ccc(O)cc4CC[C@H]3[C@@H]1CC[C@@H]2O [E2, 170 estradiol]	○	+	−	○	○	−	−	−						
Oc1ccc(-n2nc3ccc(O)cc3c2Cl)cc1 [IndCl, chloroindazole]	○		−	○	−				maintained at near normal levels; also recorded: increased	neither IndCl nor its analogues significantly increased this ratio	had a tendency to fall from the cylinder abruptly	significant increase	similar	
Oc1ccc(-n2nc3ccc(O)cc3c2Cl)c(Cl)c1 [IndCl-o-Cl, 3-chloro-2-(2-chloro-4-hydroxyphenyl)-2H-indazol-5-ol]	+		−	○	○				maintained at near normal levels; also recorded: increased		increase of EAE mice remaining on the rotarod; also recorded: improved rotarod performance		similar	similar
Cc1cc(O)ccc1-n1nc2ccc(O)cc2c1Cl [IndCl-o-Me, 3-chloro-2-(4-hydroxy-2-methylphenyl)-2H-indazol-5-ol]	+		−	○	○				maintained at near normal levels; also recorded: increased		improved rotarod performance; also recorded: greatest improvement in motor function		similar	similar
